Our source for the melting point values is US6518423B1, “Benzopiperidine derivatives” (Eisai Co., Ltd., priority 1996, dated 2003).

With `O=C(O)CSC1CCN(Cc2ccc3c(c2)Nc2nccnc2S3)CC1`, the melting point – broadly, the temperature of the solid-liquid transition – is 148 to 152 °C.

`CC1(CC(=O)O)CC2(CCN(Cc3ccc4c(c3)Nc3nccnc3S4)CC2)C1` yielded a melting point of 149 to 151 °C.

The compound `CC(C)(CO)C1C2CCCC1CN(Cc1ccc3c(c1)Nc1nccnc1S3)C2` (centres unmarked) had a melting point of 181 to 183 °C.

`C=CCN1c2ccccc2Nc2nccnc21` had a melting point of 173 to 175 °C.

Regarding `N#CN=C(Cc1ccc2c(c1)Nc1nccnc1S2)NO`, the melting point is 253 to 256 °C.

`O=C(O)Cc1ccc(OCC2CCN(Cc3ccc4c(c3)Nc3nccnc3S4)CC2)cc1`: the melting point lay within 225 to 230 °C.

Take `CC(CCC1CCN(CCc2ccc3c(c2)Nc2nccnc2S3)CC1)C(=O)O` (centres unmarked): the melting point was 229 to 230 °C (dec.).

For `N#C/N=C(/Cc1ccc2c(c1)Nc1nccnc1S2)NCc1ccccn1`, the melting point was in the range of 195 to 196 °C.

Compound `O=C(O)CNC1CCN(Cc2ccc3c(c2)Nc2nccnc2S3)CC1` displayed a melting point of 206 to 208 °C.

`CN(C)S(=O)(=O)NC1CCN(Cc2ccc3c(c2)Sc2nccnc2N3)CC1` had a melting point of 172 to 173 °C.

The compound `c1ccc(Cc2ccc(NCc3ccc4c(c3)Nc3nccnc3S4)cn2)cc1` yielded a melting point of 162 to 164 °C.

`COCN1c2ccc(OC)cc2Nc2nccnc21` had a melting point of 244 to 251 °C.

`NS(=O)(=O)c1ccc(CNCc2ccc3c(c2)Nc2nccnc2S3)cc1` yielded a melting point of 210 to 212 °C.

With `CC(C)NC(Cc1ccc2c(c1)Nc1nccnc1S2)=NC#N`, the melting point lay within 266 to 268 °C.

Take `CN1c2ccc(CO)cc2Nc2nccnc21`: the melting point was in the range of 215 to 218 °C.

On to `N#CN=C(Cc1ccc2c(c1)Nc1nccnc1S2)NCCCn1ccnc1`, for which the melting point is 205 to 208 °C.

As to `O=C(O)C#CC1CCN(Cc2ccc3c(c2)Nc2nccnc2S3)CC1`, the melting point is 155 to 156 °C.

With `CNS(=O)(=O)CCN(C)Cc1ccc2c(c1)Nc1nccnc1S2`, the melting point was in the range of 143 to 146 °C.

In turn, `O=C(O)CCCN1c2ccccc2Nc2nccnc21` returned a melting point of 273 to 274 °C.

Compound `CC(CCC1CCN(Cc2cnc3c(c2)Nc2nccnc2S3)CC1)C(=O)O` (centres unmarked) had a melting point of 115 to 118 °C.

Compound `O=C(O)c1ccc(NCc2ccc3c(c2)Nc2nccnc2S3)nc1` came in with a melting point of 215 to 220 °C.

Compound `COCN1c2ccccc2Nc2nccnc21` displayed a melting point of 185 to 188 °C.

On to `CN(C)S(=O)(=O)NCC1C2CCCC1CN(Cc1ccc3c(c1)Nc1nccnc1S3)C2` (centres unmarked), for which the melting point fell in the range of 215 to 219 °C.

In the case of `CCOC(=O)c1ccc2c(c1)Nc1nccnc1N2`, the melting point was more than 275 °C.

Compound `Clc1ccc(NCc2ccc3c(c2)Nc2nccnc2S3)nc1` showed a melting point of 200 to 203 °C.

As to `OCC1(O)CCN(Cc2ccc3c(c2)Nc2nccnc2S3)CC1`, the melting point is 170 to 173 °C.

For `Cl.N=C(Cc1ccc2c(c1)Nc1nccnc1S2)NCCO`, the melting point is 174 to 175 °C.

The compound `COCc1ccc2c(c1)Nc1nccnc1N2C` had a melting point of 169 to 172 °C.

In turn, `CCC1(CC(=O)O)CCN(Cc2ccc3c(c2)Nc2nccnc2S3)CC1` yielded a melting point of 225 to 226 °C.

Compound `CC(C)(CCCN1CCN(Cc2ccc3c(c2)Nc2nccnc2S3)CC1)C(=O)O` [750] had a melting point of 240 to 242 °C.

With `N/C(=N\[N+](=O)[O-])NCc1ccc2c(c1)Nc1nccnc1S2`, the melting point was in the range of 226 to 228 °C.

Turning to `O=C(O)C=C1C2CCCC1CN(Cc1ccc3c(c1)Nc1nccnc1S3)C2`, the melting point lay in the range of 253 to 255 °C.

Regarding `NC(=O)C1CCCN1Cc1ccc2c(c1)Nc1nccnc1S2` (centres unmarked), the melting point fell in the range of 194 to 197 °C.

The compound `CC(O)c1ncnc2c1ncn2Cc1ccc2c(c1)Nc1nccnc1S2` (centres unmarked) showed a melting point of 210 to 212 °C.

As to `CC(C)(O)c1ncnc2c1ncn2Cc1ccc2c(c1)Nc1nccnc1O2`, the melting point is 143 to 145 °C.

Turning to `O=C(O)C1CC2CCC(C1)N2Cc1ccc2c(c1)Nc1nccnc1S2` (centres unmarked), the melting point was 158 °C (dec.).

`CCOC(=O)CC1C2CCCC1CN(Cc1ccc3c(c1)Nc1nccnc1S3)C2` (centres unmarked) [Example 17]: the melting point fell in the range of 142 to 143 °C.

In the case of `c1cnc(NCc2ccc3c(c2)Nc2nccnc2S3)nc1`, the melting point lay in the range of 232 to 235 °C.

For `CS(=O)(=O)/N=C/NCc1ccc2c(c1)Nc1nccnc1S2`, the melting point lay within 175 to 176 °C.

`CN1c2ccc(-c3cnco3)cc2Nc2nccnc21`: the melting point was 268 to 269 °C.

For the compound `CCOC(=O)/C=C/c1ccc2c(c1)Nc1nccnc1N2C`, the melting point is 190 to 191 °C.

In the case of `COC(=O)CC1C2CCCC1CN(Cc1ccc3c(c1)N(C(C)=O)c1nccnc1S3)C2` (centres unmarked), the melting point was in the range of 160 to 162 °C.

Take `CS(=O)(=O)/N=C(\N)NCc1ccc2c(c1)Nc1nccnc1S2`: the melting point was in the range of 244 to 245 °C.

As for `Nc1c(N2CCN(Cc3ccc4c(c3)Nc3nccnc3S4)CC2)c(=O)c1=O`, the melting point was 285 to 288 °C (dec.).

Compound `OCCC1CCN(Cc2ccc3c(c2)Nc2nccnc2S3)CC1` registered a melting point of 148 to 152 °C.

Turning to `CN1c2ccc(C(O)c3nccs3)cc2Nc2nccnc21` (centres unmarked), the melting point lay in the range of 203 to 204 °C.

Compound `CC1CC2CN(Cc3ccc4c(c3)Nc3nccnc3S4)CC(C1)C2CC(=O)O` (centres unmarked) [Example 78] gave a melting point of 142 to 146 °C.

For the compound `COc1ccc(C2CCN(Cc3ccc4c(c3)Nc3nccnc3S4)CC2)cc1CC(=O)O`, the melting point was in the range of 174 to 176 °C.

In turn, `CC(O)c1ncnc2ncn(Cc3ccc4c(c3)Nc3nccnc3S4)c12` (centres unmarked) showed a melting point of 205 to 208 °C.

Regarding `CN(C)c1nc(N(C)C)c2ncn(Cc3ccc4c(c3)Nc3nccnc3S4)c2n1`, the melting point lay within 239 to 240 °C.

Compound `COC(=O)CNS(=O)(=O)NC1CCN(Cc2ccc3c(c2)Nc2nccnc2S3)CC1` yielded a melting point of 194 to 196 °C.

With `C/C(=C\c1ncn(Cc2ccc3c(c2)Nc2nccnc2S3)c1C)C(N)=O`, the melting point is 280 °C (dec.).

Take `N/C(Cc1ccc2c(c1)Nc1nccnc1S2)=N\S(=O)(=O)c1ccccc1`: the melting point lay within 206 to 207 °C.

`CC(CCC1CCN(CCCc2ccc3c(c2)Nc2nccnc2S3)CC1)C(=O)O` (centres unmarked) registered a melting point of 235 to 238 °C.

On to `CC1(C(=O)O)C2CCCC1CN(Cc1ccc3c(c1)Nc1nccnc1S3)C2` (centres unmarked) [Example 116], for which the melting point lay within 183 to 185 °C.

Compound `COCN1c2cc(CCl)ccc2Sc2nccnc21` displayed a melting point of 125 to 126 °C.

Turning to `O=c1[nH]cnc2c1ncn2Cc1ccc2c(c1)Nc1nccnc1S2`, the melting point is more than 275 °C.

As for `O=C(O)/C=C/c1nccn1Cc1ccc2c(c1)Nc1nccnc1S2`, the melting point is 243 to 244 °C.

The compound `COC(=O)CC1C2CCCC1CN(Cc1ccc3c(c1)N(C(=O)OC)c1nccnc1S3)C2` (centres unmarked) gave a melting point of 106 to 108 °C.

In the case of `CC(C)(CCCCc1ccc(NCc2ccc3c(c2)Nc2nccnc2S3)cn1)C(=O)O`, the melting point is 158 to 161 °C.

Compound `Cl.O=C(O)Cc1ccc(NCc2ccc3c(c2)Nc2nccnc2S3)cc1` came in with a melting point of 252 to 256 °C.

`NS(=O)(=O)N1CCN(Cc2ccc3c(c2)Nc2nccnc2S3)CC1`: the melting point is 215 to 217 °C (dec.).

Consider `COC(=O)c1ccc(NCc2ccc3c(c2)Nc2nccnc2S3)nc1`, for which the melting point fell in the range of 140 to 148 °C.

As for `c1ccc2c(NCc3ccc4c(c3)Nc3nccnc3S4)nccc2c1`, the melting point lay in the range of 222 to 225 °C.

Consider `N#Cc1ccc(-c2cn(Cc3ccc4c(c3)Nc3nccnc3S4)cn2)cc1`, for which the melting point fell in the range of 262 to 264 °C.

`CC1CCCC(C)N1Cc1ccc2c(c1)Nc1nccnc1S2` (centres unmarked) yielded a melting point of 168 to 172 °C.

`O=C(O)CCNC(=O)Cc1ccc2c(c1)Nc1nccnc1S2` had a melting point of 220 to 225 °C.

Take `CS(=O)(=O)NCC1CN(Cc2ccc3c(c2)Nc2nccnc2S3)C1`: the melting point lay within 84 to 88 °C.

`O=C(O)CC1=CCN(Cc2ccc3c(c2)Nc2nccnc2S3)CC1` came in with a melting point of 124 to 128 °C.

Take `CONC(Cc1ccc2c(c1)Nc1nccnc1S2)=NC#N`: the melting point lay in the range of 172 to 174 °C.

With `CCOP(=O)(Cc1ccc2c(c1)Nc1nccnc1S2)OCC`, the melting point lay in the range of 164 to 165 °C.

Regarding `CS(=O)(=O)N=CNc1ccc(-c2cn(Cc3ccc4c(c3)Nc3nccnc3S4)cn2)cc1`, the melting point is 159 to 162 °C.

Regarding `c1cc(-c2cn(Cc3ccc4c(c3)Nc3nccnc3S4)cn2)ccn1`, the melting point was in the range of 157 to 158 °C.

In the case of `CCc1cc(NCc2ccc3c(c2)Nc2nccnc2S3)ccn1`, the melting point lay in the range of 148 to 152 °C.

`CC(=NC#N)NCc1ccc2c(c1)Nc1nccnc1S2`: the melting point fell in the range of 275 to 277 °C.

Take `OC(CCc1ccccc1)c1ccc2c(c1)Nc1nccnc1S2` (centres unmarked): the melting point fell in the range of 156 to 158 °C.

The compound `Cc1cc(C)nc(NCc2ccc3c(c2)Nc2nccnc2S3)c1` returned a melting point of 162 to 165 °C.

`O=C(O)C(F)=C1CCN(Cc2ccc3c(c2)Nc2nccnc2S3)CC1` returned a melting point of 167 to 173 °C.

Regarding `CC(C)(CC(=O)O)C1CCN(Cc2ccc3c(c2)Nc2nccnc2S3)CC1`, the melting point was 272 to 275 °C.

In the case of `O=C([O-])Cc1ccc(OC2CCN(Cc3ccc4c(c3)Nc3nccnc3S4)CC2)cc1.[Na+]`, the melting point is 261 to 265 °C (dec.).

Compound `O=C(O)COCCC1C2CCCC1CN(Cc1ccc3c(c1)Nc1nccnc1S3)C2` (centres unmarked) came in with a melting point of 108 to 113 °C.

Regarding `COC(=O)c1ccc(CN2c3ccccc3Nc3nccnc32)cc1`, the melting point was in the range of 232 to 234 °C.

The compound `CC(C)(CC(=O)O)CC1CCN(Cc2ccc3c(c2)Nc2nccnc2S3)CC1` returned a melting point of 230 to 232 °C.

`OC(c1ccc2c(c1)Nc1nccnc1S2)c1cc(Br)ccc1F` (centres unmarked) yielded a melting point of 202 to 203 °C.

Compound `CC(C)(O)CC1CCN(Cc2ccc3c(c2)Nc2nccnc2S3)CC1` yielded a melting point of 187 to 188 °C.

The compound `Brc1nccn1Cc1ccc2c(c1)Nc1nccnc1S2` displayed a melting point of 256 to 258 °C.

`CN(C)C(Cc1ccc2c(c1)Nc1nccnc1S2)=NC#N`: the melting point was 247 to 249 °C (dec.).

As for `CN(C)S(=O)(=O)CCC1CCN(Cc2ccc3c(c2)Nc2nccnc2S3)CC1`, the melting point lay in the range of 188 to 190 °C.

`OCCC1C2CCCC1CN(Cc1ccc3c(c1)Nc1nccnc1S3)C2` (centres unmarked) showed a melting point of 123 to 127 °C.
